Experimental data reported in ChEMBL document CHEMBL4725395, “Lipoic acid modified antimicrobial peptide with enhanced antimicrobial properties” (Bioorg Med Chem, 2020).
Converted amounts (≈) assume the structure as drawn. The source made the active and inactive calls. No cut-off for these calls is given here. Residues, ends and D or L forms follow the SMILES beside them. ξ: configuration not given here. *: point of attachment. Lipoyl(6ξ) = O=C(CCCCC1CCSS1)*

Assays:
Cell membrane [1] = assay: Induction of cell membrane damage in methicillin-resistant Staphylococcus aureus ATCC 43300 assessed as leakage of cellular components at 16 ug/ml after 30 mins by transmission electron microscopy; assay type: subcellular; details: dose 16.0 µg/ml
Pseudomonas aeruginosa [2] = assay: Antimicrobial activity against Pseudomonas aeruginosa ATCC 27853 by measuring turbidity after 16 hrs; assay type: functional
Staphylococcus aureus [3] = assay: Antimicrobial activity against Staphylococcus aureus ATCC 29213 assessed as inhibition of visible growth incubated for 24 hrs; assay type: functional
Staphylococcus aureus [4] = assay: Antibiofilm activity against methicillin-resistant Staphylococcus aureus ATCC 43300 assessed as dead bacteria at 64 ug/ml incubated for 5 hrs by live/dead staining based confocal laser scanning microscopy; assay type: functional, organism-based; details: dose 64.0 µg/ml
[5] = tested on: Staphylococcus epidermidis; assay: Antimicrobial activity against Staphylococcus epidermidis ATCC 14990 assessed as inhibition of visible growth incubated for 24 hrs; assay type: functional
[6] = Hemolytic activity against Erythrocyte (unknown origin) at 16 ug/ml measured after 4 hrs by microplate reader analysis relative to control; assay type: ADME, cell-based; details: human, erythrocytes, at 16 µg/mL, read-out: Activity
Pseudomonas aeruginosa [7] = assay: Antimicrobial activity against Pseudomonas aeruginosa ATCC 27853 assessed as inhibition of visible growth incubated for 24 hrs; assay type: functional
[8] = Cytotoxicity against mouse L929 cells assessed as cell viability at 128 ug/ml after 24 hrs by MTT assay relative to control; assay type: cell-based; details: at 128 µg/mL, read-out: Activity
Staphylococcus aureus [9] = assay: Antibiofilm activity against methicillin resistant Staphylococcus aureus ATCC 43300 assessed as inhibition of biofilm formation at 64 ug/ml after 48 hrs by crystal violet staining based assay relative to control; assay type: functional; design: scale not given: the % may be the effect or the level left; details: dose 64 µg/ml
Staphylococcus aureus [10] = assay: Antimicrobial activity against Staphylococcus aureus ATCC 29213 by measuring turbidity at 540 nm OD after 16 hrs; assay type: functional
[11] = Cytotoxicity against mouse L929 cells assessed as cell viability at 32 ug/ml after 24 hrs by MTT assay relative to control; assay type: cell-based; details: at 32 µg/mL, read-out: Activity
Staphylococcus aureus [12] = assay: Antimicrobial activity against methicillin-resistant Staphylococcus aureus ATCC 43300 by measuring turbidity after 16 hrs; assay type: functional
Staphylococcus aureus [13] = assay: (§1) Bactericidal activity against planktonic phase of Staphylococcus aureus ATCC 29213 assessed as log reduction in bacterial colony forming units at 2 ug/ml incubated for 15 mins followed by plating on agar plate and measured after overnight incubation by time-kill kinetic assay relative to control; assay type: functional; design: scale not given: the % may be the effect or the level left; details: dose 2 µg/ml, 0.25 h
[14] = Hemolytic activity against Erythrocyte (unknown origin) at 4 ug/ml measured after 4 hrs by microplate reader analysis relative to control; assay type: ADME, cell-based; details: human, erythrocytes, at 4 µg/mL, read-out: Activity
Escherichia coli [15] = assay: Antimicrobial activity against Escherichia coli ATCC 25922 by measuring turbidity after 16 hrs; assay type: functional
Staphylococcus aureus [16] = assay: Antibiofilm activity against 48 hrs preformed biofilm of methicillin resistant Staphylococcus aureus ATCC 43300 assessed as reduction in biofilm viability at 128 ug/ml after 5 hrs relative to control; assay type: functional; details: dose 128 µg/ml
Staphylococcus aureus [17] = assay: Antimicrobial activity against methicillin-resistant Staphylococcus aureus ATCC 43300 assessed as inhibition of visible growth incubated for 24 hrs; assay type: functional
Staphylococcus aureus [18] = assay: Antibiofilm activity against 48 hrs pre-formed biofilm of Staphylococcus aureus ATCC 29213 assessed as reduction in biofilm viability at 64 ug/ml after 5 hrs relative to control; assay type: functional; details: dose 64 µg/ml
[19] = Cytotoxicity against mouse L929 cells assessed as cell viability at 8 or 16 ug/ml after 24 hrs by MTT assay relative to control; assay type: cell-based; details: dose 8-16 µg/ml, read-out: Activity
Staphylococcus aureus [20] = assay: Antibiofilm activity against Staphylococcus aureus ATCC 29213 assessed as dead bacteria at 64 ug/ml incubated for 5 hrs by live/dead staining based confocal laser scanning microscopy; assay type: functional, organism-based; details: dose 64.0 µg/ml
Staphylococcus aureus [21] = assay: Antibiofilm activity against Staphylococcus aureus ATCC 29213 assessed as inhibition of biofilm formation at 64 ug/ml after 48 hrs by crystal violet staining based assay relative to control; assay type: functional; design: scale not given: the % may be the effect or the level left; details: dose 64 µg/ml
Escherichia coli [22] = assay: Antimicrobial activity against Escherichia coli ATCC 25922 assessed as inhibition of visible growth incubated for 24 hrs; assay type: functional
Cell membrane [23] = assay: Induction of outer membrane permeabilization in Escherichia coli ATCC 25922 assessed as increase in fluorescence intensity at 4 ug/ml after 100 sec by NPN-dye based assay; assay type: subcellular; details: dose 4.0 µg/ml
Cell membrane [24] = assay: Induction of cell membrane damage in Escherichia coli ATCC 25922 assessed as leakage of cellular components at 16 ug/ml after 30 mins by transmission electron microscopy; assay type: subcellular; details: dose 16.0 µg/ml
Staphylococcus aureus [25] = assay: as §1, with “of methicillin-resistant” for “of”, “43300” for “29213”, “8” for “2”; assay type: functional; design: scale not given: the % may be the effect or the level left; details: dose 8 µg/ml, 0.25 h
[26] = Cytotoxicity against mouse L929 cells assessed as cell viability at 64 ug/ml after 24 hrs by MTT assay relative to control; assay type: cell-based; details: at 64 µg/mL, read-out: Activity
[27] = tested on: Staphylococcus epidermidis; assay: Antimicrobial activity against Staphylococcus epidermidis ATCC 14990 by measuring turbidity after 16 hrs; assay type: functional
Cell membrane [28] = assay: Induction of cytoplasmic membrane depolarization in Kcl - treated Escherichia coli DC2 assessed as increase in fluorescence intensity for a period of 600 sec by diSC3-5 dye based fluorescence microplate reader assay

Molecule	Activity (Cell membrane [1])	MIC (Pseudomonas aeruginosa [2])	MBC (Staphylococcus aureus [3])	MBC [5]	hemolysis at 4 h, 16 ug/ml [6]	MBC (Pseudomonas aeruginosa [7])	viability at 24 h, 128 ug/ml [8]	MIC (Staphylococcus aureus [10])	MIC (Staphylococcus aureus [12])	hemolysis at 4 h, 4 ug/ml [14]	MIC (Escherichia coli [15])	Activity (Staphylococcus aureus [16])	MBC (Staphylococcus aureus [17])	Activity (Staphylococcus aureus [18])	viability at 24 h [19]	MBC (Escherichia coli [22])	Activity (Cell membrane [24])	MIC [27]	Activity (Cell membrane [28])	also measured
CC[C@H](C)[C@H](NC(=O)[C@H](CCCNC(=N)N)NC(=O)CCCCC1CCSS1)C(=O)N[C@@H](Cc1c[nH]c2ccccc12)C(=O)N[C@H](C(=O)N[C@H](C(=O)N[C@@H](Cc1c[nH]c2ccccc12)C(=O)N[C@@H](CCCNC(=N)N)C(=O)N[C@@H](CCCNC(=N)N)C(N)=O)[C@@H](C)CC)C(C)C (some centres not stated) ({Lipoyl(6ξ)}-RIWVIWRR-NH2)	Active	8 µg/mL (≈ 5.83 µM)	2 µg/mL (≈ 1.46 µM)	8 µg/mL (≈ 5.83 µM)	4.58%	8 µg/mL (≈ 5.83 µM)	80.1%	1 µg/mL (≈ 0.729 µM)	4 µg/mL (≈ 2.92 µM)	0.97%	8 µg/mL (≈ 5.83 µM)	36.4%	8 µg/mL (≈ 5.83 µM)	60%	100%	8 µg/mL (≈ 5.83 µM)	Active	8 µg/mL (≈ 5.83 µM)	Dose-dependent effect	Activity (Staphylococcus aureus [4]): Active; Activity (Staphylococcus aureus [9]): 25.6%; viability at 24 h, 32 ug/ml [11]: 89.4%; Activity (Staphylococcus aureus [13]): 99%; Activity (Staphylococcus aureus [20]): Active; Activity (Staphylococcus aureus [21]): 12%; Activity (Cell membrane [23]): Active; Activity (Staphylococcus aureus [25]): 99%; viability at 24 h, 64 ug/ml [26]: 84.9%
H-RIWVIWRR-NH2	Active	4 µg/mL	4 µg/mL	4 µg/mL	3.47%	4 µg/mL	85.7%	2 µg/mL	8 µg/mL	1.21%	4 µg/mL	40.2%	16 µg/mL	45%	100%	4 µg/mL	Active	4 µg/mL	Dose-dependent effect	–
